Some test systems named below: SNB-75 CNS; UACC-62 melanoma; RXF 393 renal; UACC-257 melanoma; HT29 colon; SK-MEL-28 melanoma; TK-10 renal; M14 melanoma; SNB-19 CNS; UO-31 renal.
Holding throughout (assay): NCI-60 cell line screen, 48 h

The structures appear in SMILES notation.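 Five compound concentrations were applied to cells in 96-well plates for 48 hours; endpoints were derived by simple linear interpolation of the resulting dose-response curve. GI50 marks 50% less growth. Definition used: TGI = concentration required for complete inhibition of growth.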

Turning to `CCc1c[nH]c2ncnc(N3CC[C@@](N)(CNC(=O)c4ccc(F)cc4F)C3)c12`, the GI50 in the experiment on SNB-75 CNS is 16.3 µM; in the experiment with UACC-62 melanoma it was 33 µM; in the experiment on RXF 393 renal, 7.16 µM; with UACC-257 melanoma, 34.5 µM; with HT29 colon it was 62 µM; with SK-MEL-28 melanoma, 45.4 µM. In addition, the GI50 is 22.2 µM in the experiment with TK-10 renal, 54.9 µM in the experiment with M14 melanoma, 44.8 µM in the experiment on SNB-19 CNS and 33.7 µM in the experiment with UO-31 renal. Also, the TGI is 77.5 µM with SNB-75 CNS; > 100 µM with UACC-62 melanoma; 35.9 µM in the experiment with RXF 393 renal; > 100 µM with UACC-257 melanoma; > 100 µM in the experiment with HT29 colon; > 100 µM in the experiment on SK-MEL-28 melanoma. Moreover, the TGI with TK-10 renal was > 83.9 µM; in the experiment with M14 melanoma it was > 100 µM; with SNB-19 CNS, > 100 µM; with UO-31 renal, > 100 µM.
Regarding `COc1cc2cc(Oc3ccc(NC(=O)c4ccc(Cl)c(C(F)(F)F)c4)cc3)c(C)nc2cc1OC`, the GI50 in the experiment on SNB-75 CNS was 16.4 µM; in the experiment with UACC-62 melanoma, 18.2 µM; in the experiment on RXF 393 renal it was 9.04 µM; in the experiment with UACC-257 melanoma it was 18.2 µM; with HT29 colon, 10.3 µM; in the experiment on SK-MEL-28 melanoma, 30.3 µM. In addition, the GI50 with TK-10 renal is 12.4 µM; with M14 melanoma, 9.55 µM; in the experiment with SNB-19 CNS, 24.6 µM; with UO-31 renal it was 9.82 µM. Further, the TGI in the experiment on SNB-75 CNS was > 100 µM; with UACC-62 melanoma, > 100 µM; with RXF 393 renal, > 100 µM; in the experiment with UACC-257 melanoma, 97.5 µM; in the experiment with HT29 colon, > 100 µM; with SK-MEL-28 melanoma it was > 100 µM. Further, the TGI with TK-10 renal, with M14 melanoma, in the experiment on SNB-19 CNS and in the experiment with UO-31 renal was > 100 µM in each case.
